Experimental data reported in PubChem BioAssay (NCI).
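Dose response: 5 concentrations. Exposure: 48 h. Format: 96-well plates. Endpoint: linear interpolation; highest concentration if not reached. GI50 is the concentration that inhibits growth by half. At the TGI there is no net growth.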

tested on: NCI-H226 lung; assay: NCI anticancer screen, dose series, 48 h

SMILES | TGI
CCOC(=O)c1c(-c2ccccc2)c(-c2ccccc2)cn1C | > 10 µM

tested on: NCI-H23 lung; assay: NCI anticancer screen, dose series, 48 h

SMILES | TGI | GI50
C=C1c2cc3c(cc2CC12Cc1cc4c(cc1C2=O)CCC4)CCC3 (stereo not given) | > 100 µM | 
NNC1=N/C(=C\c2ccco2)C(Cl)=N1 | > 100 µM | 
CC1=C2C(=C[C@H]3[C@]4(C)CCCC(C)(C)[C@H]4CC[C@]34O[C@H]24)OC1=O | > 100 µM | 
COc1cc2c(Nc3cc(Cl)c(OC)c(Cl)c3)c(C#N)cnc2cc1OCCCN1CCN(C)CC1 | 4.89 µM | 1.54 µM
COC(=O)C1C(O)C(C(=O)OC)C(C)N(C)C1C (stereo not given) | > 100 µM | 
c1ccc2c(c1)c1c(n2CCOCCN2CCOCC2)CCCC1 | > 100 µM | 
CCOC(=O)c1c(-c2ccccc2)c(-c2ccccc2)cn1C | > 10 µM | 

tested on: NCI-H460 lung; assay: NCI anticancer screen, dose series, 48 h

SMILES | TGI | GI50
C=C1c2cc3c(cc2CC12Cc1cc4c(cc1C2=O)CCC4)CCC3 (stereo not given) | > 100 µM | 
CC1=C2C(=C[C@H]3[C@]4(C)CCCC(C)(C)[C@H]4CC[C@]34O[C@H]24)OC1=O | > 100 µM | 
COc1cc2c(Nc3cc(Cl)c(OC)c(Cl)c3)c(C#N)cnc2cc1OCCCN1CCN(C)CC1 | 8.47 µM | 1.91 µM
COC(=O)C1C(O)C(C(=O)OC)C(C)N(C)C1C (stereo not given) | > 100 µM | 
c1ccc2c(c1)c1c(n2CCOCCN2CCOCC2)CCCC1 | > 100 µM | 
CCOC(=O)c1c(-c2ccccc2)c(-c2ccccc2)cn1C | > 10 µM | 

tested on: NCI-H522 lung; assay: NCI anticancer screen, dose series, 48 h

SMILES | TGI | GI50
C=C1c2cc3c(cc2CC12Cc1cc4c(cc1C2=O)CCC4)CCC3 (stereo not given) | > 100 µM | 
NNC1=N/C(=C\c2ccco2)C(Cl)=N1 | 92.2 µM | 
CC1=C2C(=C[C@H]3[C@]4(C)CCCC(C)(C)[C@H]4CC[C@]34O[C@H]24)OC1=O | > 100 µM | 
COc1cc2c(Nc3cc(Cl)c(OC)c(Cl)c3)c(C#N)cnc2cc1OCCCN1CCN(C)CC1 | 2.17 µM | 0.365 µM
CCOC(=O)c1c(-c2ccccc2)c(-c2ccccc2)cn1C | > 10 µM | 

tested on: NCI/ADR-RES ovarian; assay: NCI anticancer screen, dose series, 48 h

SMILES | TGI | GI50
C=C1c2cc3c(cc2CC12Cc1cc4c(cc1C2=O)CCC4)CCC3 (stereo not given) | > 100 µM | 
NNC1=N/C(=C\c2ccco2)C(Cl)=N1 | > 100 µM | 
CC1=C2C(=C[C@H]3[C@]4(C)CCCC(C)(C)[C@H]4CC[C@]34O[C@H]24)OC1=O | > 100 µM | 
COc1cc2c(Nc3cc(Cl)c(OC)c(Cl)c3)c(C#N)cnc2cc1OCCCN1CCN(C)CC1 | 9.55 µM | 2.46 µM
COC(=O)C1C(O)C(C(=O)OC)C(C)N(C)C1C (stereo not given) | > 100 µM | 
c1ccc2c(c1)c1c(n2CCOCCN2CCOCC2)CCCC1 | 54.9 µM | 
CCOC(=O)c1c(-c2ccccc2)c(-c2ccccc2)cn1C | > 10 µM | 

tested on: OVCAR-3 ovarian; assay: NCI anticancer screen, dose series, 48 h

SMILES | TGI | GI50
C=C1c2cc3c(cc2CC12Cc1cc4c(cc1C2=O)CCC4)CCC3 (stereo not given) | > 100 µM | 
NNC1=N/C(=C\c2ccco2)C(Cl)=N1 | > 100 µM | 
COc1cc2c(Nc3cc(Cl)c(OC)c(Cl)c3)c(C#N)cnc2cc1OCCCN1CCN(C)CC1 | 4.49 µM | 1.65 µM
COC(=O)C1C(O)C(C(=O)OC)C(C)N(C)C1C (stereo not given) | > 100 µM | 
c1ccc2c(c1)c1c(n2CCOCCN2CCOCC2)CCCC1 | > 100 µM | 
CCOC(=O)c1c(-c2ccccc2)c(-c2ccccc2)cn1C | > 10 µM | 

tested on: OVCAR-4 ovarian; assay: NCI anticancer screen, dose series, 48 h

SMILES | TGI | GI50
C=C1c2cc3c(cc2CC12Cc1cc4c(cc1C2=O)CCC4)CCC3 (stereo not given) | > 100 µM | 
NNC1=N/C(=C\c2ccco2)C(Cl)=N1 | 75.8 µM | 
CC1=C2C(=C[C@H]3[C@]4(C)CCCC(C)(C)[C@H]4CC[C@]34O[C@H]24)OC1=O | > 100 µM | 
COc1cc2c(Nc3cc(Cl)c(OC)c(Cl)c3)c(C#N)cnc2cc1OCCCN1CCN(C)CC1 | 11.3 µM | 1.9 µM
COC(=O)C1C(O)C(C(=O)OC)C(C)N(C)C1C (stereo not given) | > 100 µM | 
c1ccc2c(c1)c1c(n2CCOCCN2CCOCC2)CCCC1 | 86.8 µM | 
CCOC(=O)c1c(-c2ccccc2)c(-c2ccccc2)cn1C | > 10 µM | 

tested on: OVCAR-5 ovarian; assay: NCI anticancer screen, dose series, 48 h

SMILES | TGI | GI50
C=C1c2cc3c(cc2CC12Cc1cc4c(cc1C2=O)CCC4)CCC3 (stereo not given) | > 100 µM | 
NNC1=N/C(=C\c2ccco2)C(Cl)=N1 | > 100 µM | 
CC1=C2C(=C[C@H]3[C@]4(C)CCCC(C)(C)[C@H]4CC[C@]34O[C@H]24)OC1=O | > 100 µM | 
COc1cc2c(Nc3cc(Cl)c(OC)c(Cl)c3)c(C#N)cnc2cc1OCCCN1CCN(C)CC1 | 11.7 µM | 1.56 µM
COC(=O)C1C(O)C(C(=O)OC)C(C)N(C)C1C (stereo not given) | > 100 µM | 
c1ccc2c(c1)c1c(n2CCOCCN2CCOCC2)CCCC1 | > 100 µM | 
CCOC(=O)c1c(-c2ccccc2)c(-c2ccccc2)cn1C | > 10 µM | 

tested on: OVCAR-8 ovarian; assay: NCI anticancer screen, dose series, 48 h

SMILES | TGI | GI50
C=C1c2cc3c(cc2CC12Cc1cc4c(cc1C2=O)CCC4)CCC3 (stereo not given) | > 100 µM | 
NNC1=N/C(=C\c2ccco2)C(Cl)=N1 | > 100 µM | 
COc1cc2c(Nc3cc(Cl)c(OC)c(Cl)c3)c(C#N)cnc2cc1OCCCN1CCN(C)CC1 | 4.33 µM | 1.24 µM
COC(=O)C1C(O)C(C(=O)OC)C(C)N(C)C1C (stereo not given) | > 100 µM | 
c1ccc2c(c1)c1c(n2CCOCCN2CCOCC2)CCCC1 | > 100 µM | 
CCOC(=O)c1c(-c2ccccc2)c(-c2ccccc2)cn1C | > 10 µM | 

tested on: PC-3 prostate; assay: NCI anticancer screen, dose series, 48 h

SMILES | TGI | GI50
C=C1c2cc3c(cc2CC12Cc1cc4c(cc1C2=O)CCC4)CCC3 (stereo not given) | > 100 µM | 
NNC1=N/C(=C\c2ccco2)C(Cl)=N1 | > 100 µM | 
CC1=C2C(=C[C@H]3[C@]4(C)CCCC(C)(C)[C@H]4CC[C@]34O[C@H]24)OC1=O | > 100 µM | 
COc1cc2c(Nc3cc(Cl)c(OC)c(Cl)c3)c(C#N)cnc2cc1OCCCN1CCN(C)CC1 | 20.6 µM | 7.06 µM
COC(=O)C1C(O)C(C(=O)OC)C(C)N(C)C1C (stereo not given) | > 100 µM | 
c1ccc2c(c1)c1c(n2CCOCCN2CCOCC2)CCCC1 | > 100 µM | 

tested on: RPMI-8226 leukemia; assay: NCI anticancer screen, dose series, 48 h

SMILES | TGI | GI50
C=C1c2cc3c(cc2CC12Cc1cc4c(cc1C2=O)CCC4)CCC3 (stereo not given) | > 100 µM | 
NNC1=N/C(=C\c2ccco2)C(Cl)=N1 | 41.8 µM | 
CC1=C2C(=C[C@H]3[C@]4(C)CCCC(C)(C)[C@H]4CC[C@]34O[C@H]24)OC1=O | > 100 µM | 
COc1cc2c(Nc3cc(Cl)c(OC)c(Cl)c3)c(C#N)cnc2cc1OCCCN1CCN(C)CC1 | 4.79 µM | 1.47 µM
COC(=O)C1C(O)C(C(=O)OC)C(C)N(C)C1C (stereo not given) | > 100 µM | 
c1ccc2c(c1)c1c(n2CCOCCN2CCOCC2)CCCC1 | 53.9 µM | 

tested on: RXF 393 renal; assay: NCI anticancer screen, dose series, 48 h

SMILES | TGI | GI50
C=C1c2cc3c(cc2CC12Cc1cc4c(cc1C2=O)CCC4)CCC3 (stereo not given) | > 100 µM | 
NNC1=N/C(=C\c2ccco2)C(Cl)=N1 | > 100 µM | 
CC1=C2C(=C[C@H]3[C@]4(C)CCCC(C)(C)[C@H]4CC[C@]34O[C@H]24)OC1=O | > 100 µM | 
COc1cc2c(Nc3cc(Cl)c(OC)c(Cl)c3)c(C#N)cnc2cc1OCCCN1CCN(C)CC1 | 2.5 µM | 1.01 µM
COC(=O)C1C(O)C(C(=O)OC)C(C)N(C)C1C (stereo not given) | > 100 µM | 
CCOC(=O)c1c(-c2ccccc2)c(-c2ccccc2)cn1C | > 10 µM | 

tested on: SF-268 CNS; assay: NCI anticancer screen, dose series, 48 h

SMILES | TGI | GI50
C=C1c2cc3c(cc2CC12Cc1cc4c(cc1C2=O)CCC4)CCC3 (stereo not given) | > 100 µM | 
NNC1=N/C(=C\c2ccco2)C(Cl)=N1 | > 100 µM | 
CC1=C2C(=C[C@H]3[C@]4(C)CCCC(C)(C)[C@H]4CC[C@]34O[C@H]24)OC1=O | > 100 µM | 
COc1cc2c(Nc3cc(Cl)c(OC)c(Cl)c3)c(C#N)cnc2cc1OCCCN1CCN(C)CC1 | 6.92 µM | 1.9 µM
c1ccc2c(c1)c1c(n2CCOCCN2CCOCC2)CCCC1 | > 100 µM | 
CCOC(=O)c1c(-c2ccccc2)c(-c2ccccc2)cn1C | > 10 µM | 

tested on: SF-295 CNS; assay: NCI anticancer screen, dose series, 48 h

SMILES | TGI | GI50
C=C1c2cc3c(cc2CC12Cc1cc4c(cc1C2=O)CCC4)CCC3 (stereo not given) | > 100 µM | 
NNC1=N/C(=C\c2ccco2)C(Cl)=N1 | > 100 µM | 
CC1=C2C(=C[C@H]3[C@]4(C)CCCC(C)(C)[C@H]4CC[C@]34O[C@H]24)OC1=O | > 100 µM | 
COc1cc2c(Nc3cc(Cl)c(OC)c(Cl)c3)c(C#N)cnc2cc1OCCCN1CCN(C)CC1 | 7.45 µM | 2.49 µM
COC(=O)C1C(O)C(C(=O)OC)C(C)N(C)C1C (stereo not given) | > 100 µM | 
c1ccc2c(c1)c1c(n2CCOCCN2CCOCC2)CCCC1 | 50 µM | 
CCOC(=O)c1c(-c2ccccc2)c(-c2ccccc2)cn1C | > 10 µM | 

tested on: SF-539 CNS; assay: NCI anticancer screen, dose series, 48 h

SMILES | TGI | GI50
C=C1c2cc3c(cc2CC12Cc1cc4c(cc1C2=O)CCC4)CCC3 (stereo not given) | > 100 µM | 
NNC1=N/C(=C\c2ccco2)C(Cl)=N1 | 57.4 µM | 
COc1cc2c(Nc3cc(Cl)c(OC)c(Cl)c3)c(C#N)cnc2cc1OCCCN1CCN(C)CC1 | 2.91 µM | 1.01 µM
COC(=O)C1C(O)C(C(=O)OC)C(C)N(C)C1C (stereo not given) | > 100 µM | 
c1ccc2c(c1)c1c(n2CCOCCN2CCOCC2)CCCC1 | > 100 µM | 
CCOC(=O)c1c(-c2ccccc2)c(-c2ccccc2)cn1C | > 10 µM | 

tested on: SK-MEL-2 melanoma; assay: NCI anticancer screen, dose series, 48 h

SMILES | TGI
C=C1c2cc3c(cc2CC12Cc1cc4c(cc1C2=O)CCC4)CCC3 (stereo not given) | > 100 µM
NNC1=N/C(=C\c2ccco2)C(Cl)=N1 | > 100 µM
